The record followed here is PMC4146477, “Synthesis and Antimycobacterial and Photosynthesis-Inhibiting Evaluation of 2-[(E)-2-Substituted-ethenyl]-1,3-benzoxazoles” (The Scientific World Journal, 2014).

What is called MIC is the lowest concentration found to suppress growth. What is called IC50 is the midpoint of a concentration-inhibition curve. A low value points to greater potency in that assay.

Values after ≈ are worked out from the molar mass of the structure shown. Values joined by “and” are separate entries in the source; they are usually repeats but may differ in a detail not shown here. Identical values can stand only once.

Test system in one data set: not listed separately
As to the kind of experiment: Lipophilicity determination by RP-HPLC (capacity factor k / log k). The conditions noted are these: C18, MeOH 70% / H2O 30%, isocratic. The data set is classed as physicochemical. The source says:
A Waters Alliance 2695 XE HPLC separation module and a Waters Photodiode Array Detector 2996 (Waters Corp., Milford, MA, USA) were used. A Symmetry C18 5 μm, 4.6 × 250 mm, Part No. WAT054275 (Waters Corp., Milford, MA, USA) chromatographic column was used. The HPLC separation process was monitored by Empower 2 Chromatography Data Software, Waters 2009 (Waters Corp., Milford, MA, USA). A mixture of MeOH p.a. (70%) and H2O-HPLC - Mili-Q Grade (30%) was used as a mobile phase. The total flow of the column was 1.0 mL/min, injection volume, 30 μL, column temperature, 45°C, and sample temperature, 10°C. The detection wavelength of 210 nm was chosen. The KI methanolic solution was used for the dead time (t D) determination. Retention times (t R) were measured in minutes. The capacity factors k were calculated using the Empower 2 Chromatography Data Software according to formula k = (t R − t D)/t D, where t R is the retention time of the solute, whereas t D denotes the dead time obtained using an unretained analyte.
Lipophilicity is a property that has a major effect on ADME/Tox properties as well as pharmacological activity, because drugs mostly cross biological membranes through passive transport, which strongly depends on their lipophilicity. Lipophilicity has been studied and applied as an important drug property for decades. This parameter was measured by means of RP-HPLC and expressed as logarithm of capacity factor k. The procedure was performed under isocratic conditions with methanol as an organic modifier in the mobile phase using an end-capped nonpolar C18 stationary RP column. The hydrophobic contributions (expressed as distributive parameters π) of individual substituents in C(2) position of 2-[(E)-2-substituted-ethenyl]-1,3-benzoxazole scaffold were predicted using ACD/Percepta ver. 2012 (Advanced Chemistry Development, Inc., Toronto, ON, Canada). The results are shown in Table 1 and the match of the experimental determined lipophilicity log k with calculated distributive parameters π is illustrated in Figure 1.
For `Clc1ccc(/C=C/c2nc3ccccc3o2)cc1` [Compound 6, 2-[(E)-2-(4-Chlorophenyl)ethenyl]-1,3-benzoxazole], the log k is 1.1226 and 1.1271.

On to `Cc1ccc(/C=C/c2nc3ccccc3o2)cc1` [Compound 5, 2-[(E)-2-(4-Methylphenyl)ethenyl]-1,3-benzoxazole], for which the log k amounted to 1.1226.

In turn, `CCc1ccc(/C=C/c2nc3ccccc3o2)o1` [Compound 10, 2-[(E)-2-(5-Ethylfuran-2-yl)ethenyl]-1,3-benzoxazole] had a log k of 1.0702.

Another data set concerns Mycobacterium tuberculosis My 331/88. As to the kind of experiment: In vitro antimycobacterial evaluation (MIC, Sula semisynthetic medium). The data set is classed as cell-based. Conditions: MY331/88, 336 h, 14d incubation.
On to `Clc1ccc(/C=C/c2nc3ccccc3o2)cc1` [Compound 6, 2-[(E)-2-(4-Chlorophenyl)ethenyl]-1,3-benzoxazole], for which the minimal inhibitory concentration (MIC) amounted to 250 µM (≈ 63.9 µg/mL).

For `Cc1ccc(/C=C/c2nc3ccccc3o2)cc1` [Compound 5, 2-[(E)-2-(4-Methylphenyl)ethenyl]-1,3-benzoxazole], the lowest concentration to inhibit growth (MIC) was 250 µM (≈ 58.8 µg/mL).

With `CCc1ccc(/C=C/c2nc3ccccc3o2)o1` [Compound 10, 2-[(E)-2-(5-Ethylfuran-2-yl)ethenyl]-1,3-benzoxazole], the lowest concentration to inhibit growth (MIC) was 250 µM (≈ 59.8 µg/mL).

Staying with this data set, now noted: MY331/88, 504 h, 21d incubation.
`Clc1ccc(/C=C/c2nc3ccccc3o2)cc1` [Compound 6, 2-[(E)-2-(4-Chlorophenyl)ethenyl]-1,3-benzoxazole] showed an MIC of 250 µM (≈ 63.9 µg/mL).

Compound `Cc1ccc(/C=C/c2nc3ccccc3o2)cc1` [Compound 5, 2-[(E)-2-(4-Methylphenyl)ethenyl]-1,3-benzoxazole] came in with an MIC of 250 µM (≈ 58.8 µg/mL).

In the case of `CCc1ccc(/C=C/c2nc3ccccc3o2)o1` [Compound 10, 2-[(E)-2-(5-Ethylfuran-2-yl)ethenyl]-1,3-benzoxazole], the minimal inhibitory concentration (MIC) was found to be 250 µM (≈ 59.8 µg/mL).

The test system of a further data set is M. avium My 330/88. The description is as above. The data set is classed as cell-based. Conditions: Mycobacterium avium, MY330/88, 336 h; 14d incubation.
Compound `Clc1ccc(/C=C/c2nc3ccccc3o2)cc1` [Compound 6, 2-[(E)-2-(4-Chlorophenyl)ethenyl]-1,3-benzoxazole] came in with an MIC of 250 µM (≈ 63.9 µg/mL).

`Cc1ccc(/C=C/c2nc3ccccc3o2)cc1` [Compound 5, 2-[(E)-2-(4-Methylphenyl)ethenyl]-1,3-benzoxazole]: the lowest concentration to inhibit growth (MIC) was 125 µM (≈ 29.4 µg/mL).

`CCc1ccc(/C=C/c2nc3ccccc3o2)o1` [Compound 10, 2-[(E)-2-(5-Ethylfuran-2-yl)ethenyl]-1,3-benzoxazole] showed an MIC of 250 µM (≈ 59.8 µg/mL).

The data set is the same for the next values; noted with them: Mycobacterium avium, MY330/88, 504 h; 21d incubation.
On to `Clc1ccc(/C=C/c2nc3ccccc3o2)cc1` [Compound 6, 2-[(E)-2-(4-Chlorophenyl)ethenyl]-1,3-benzoxazole], for which 500 µM (≈ 128 µg/mL) was the least that counted as inhibitory (MIC).

On to `Cc1ccc(/C=C/c2nc3ccccc3o2)cc1` [Compound 5, 2-[(E)-2-(4-Methylphenyl)ethenyl]-1,3-benzoxazole], for which the MIC worked out at 250 µM (≈ 58.8 µg/mL).

`CCc1ccc(/C=C/c2nc3ccccc3o2)o1` [Compound 10, 2-[(E)-2-(5-Ethylfuran-2-yl)ethenyl]-1,3-benzoxazole] showed an MIC of 250 µM (≈ 59.8 µg/mL).

In the next data set the test system is M. kansasii My 235/80. The description is as above. The data set is classed as cell-based. Conditions: Mycobacterium kansasii, MY235/80, 336 h; 14d incubation; read-out: MIC MK.
For the compound `Clc1ccc(/C=C/c2nc3ccccc3o2)cc1` [Compound 6, 2-[(E)-2-(4-Chlorophenyl)ethenyl]-1,3-benzoxazole], the minimal inhibitory concentration (MIC) was determined as 500 µM (≈ 128 µg/mL).

Take `Cc1ccc(/C=C/c2nc3ccccc3o2)cc1` [Compound 5, 2-[(E)-2-(4-Methylphenyl)ethenyl]-1,3-benzoxazole]: the MIC is 250 µM (≈ 58.8 µg/mL).

As to `CCc1ccc(/C=C/c2nc3ccccc3o2)o1` [Compound 10, 2-[(E)-2-(5-Ethylfuran-2-yl)ethenyl]-1,3-benzoxazole], the minimum inhibitory concentration (MIC) was 62.5 µM (≈ 15 µg/mL).

The same data set, now with this note: Mycobacterium kansasii, MY235/80, 504 h; 21d incubation; read-out: MIC MK.
Turning to `Clc1ccc(/C=C/c2nc3ccccc3o2)cc1` [Compound 6, 2-[(E)-2-(4-Chlorophenyl)ethenyl]-1,3-benzoxazole], the minimum inhibitory concentration (MIC) turned out to be 500 µM (≈ 128 µg/mL).

`Cc1ccc(/C=C/c2nc3ccccc3o2)cc1` [Compound 5, 2-[(E)-2-(4-Methylphenyl)ethenyl]-1,3-benzoxazole]: the MIC is 500 µM (≈ 118 µg/mL).

In the case of `CCc1ccc(/C=C/c2nc3ccccc3o2)o1` [Compound 10, 2-[(E)-2-(5-Ethylfuran-2-yl)ethenyl]-1,3-benzoxazole], the minimum inhibitory concentration (MIC) is 250 µM (≈ 59.8 µg/mL).

The same data set, now with this note: Mycobacterium kansasii, MY235/80, incubation time not stated; read-out: inhibitory activity (MIC) against M. kansasii.
For `Clc1ccc(/C=C/c2nc3ccccc3o2)cc1` [Compound 6, 2-[(E)-2-(4-Chlorophenyl)ethenyl]-1,3-benzoxazole], the minimal inhibitory concentration (MIC) was 500 µM (≈ 128 µg/mL).

The subject of the next data set is photosynthetic electron transport (PET) in spinach chloroplasts. The data set can be described thus: Inhibition of photosynthetic electron transport (PET) in spinach chloroplasts (DCPIP photoreduction). The data set is classed as biochemical, Spinacia oleracea L. Conditions: DCPIP as electron acceptor. On the procedure: Chloroplasts were prepared from spinach (Spinacia oleracea L.) according to Masarovicova and Kralova. The inhibition of photosynthetic electron transport (PET) in spinach chloroplasts was determined spectrophotometrically (Genesys 6, Thermo Scientific), using an artificial electron acceptor 2,6-dichlorophenol-indophenol (DCPIP) according to Kralova et al., and the rate of photosynthetic electron transport was monitored as a photoreduction of DCPIP. The measurements were carried out in phosphate buffer (0.02 mol/L, pH 7.2) containing sucrose (0.4 mol/L), MgCl2 (0.005 mol/L), and NaCl (0.015 mol/L). The chlorophyll content was 30 mg/L in these experiments and the samples were irradiated (~100 W/m^2 with 10 cm distance) with a halogen lamp (250 W) using a 4 cm water filter to prevent warming of the samples (suspension temperature 22°C). The studied compounds were dissolved in DMSO due to their limited water solubility. […] The inhibitory efficiency of the studied compounds was expressed by IC50 values, that is, by molar concentration of the compounds causing 50% decrease in the oxygen evolution rate relative to the untreated control.
Compound `Clc1ccc(/C=C/c2nc3ccccc3o2)cc1` [Compound 6, 2-[(E)-2-(4-Chlorophenyl)ethenyl]-1,3-benzoxazole] had an IC50 of 517 µM.

In the case of `Cc1ccc(/C=C/c2nc3ccccc3o2)cc1` [Compound 5, 2-[(E)-2-(4-Methylphenyl)ethenyl]-1,3-benzoxazole], the IC50 turned out to be 102 µM.

`CCc1ccc(/C=C/c2nc3ccccc3o2)o1` [Compound 10, 2-[(E)-2-(5-Ethylfuran-2-yl)ethenyl]-1,3-benzoxazole] had an IC50 of 122 µM.
